{"source": "patent US6262054A", "about": "(priority 1996, dated 2001)", "key": {"non-Hodgkin's lymphoma": {"test_system": "non-Hodgkin's lymphoma", "settings": "single agent; cited from earlier work"}, "sensitive tumor cells": {"test_system": "sensitive tumor cells", "settings": "cited from earlier work"}, "breast cancer": {"test_system": "breast cancer", "settings": "cited from earlier work; for curative effect of the single agent: alone, metastatic breast cancer patients; for antitumor activity: single agent"}, "[1]": {"test_system": "non-small cell lung cancer", "settings": "single agent; cited from earlier work"}, "head and neck carcinoma": {"test_system": "head and neck carcinoma", "settings": "single agent; cited from earlier work"}, "[2]": {"settings": "cited from earlier work"}, "P388 Murine Tumor": {"test_system": "P388 Murine Tumor", "assay": "in vivo", "settings": "for Increased Life-Span / Long-term Survivors / Median Survival Time (± SEM): at maximum tolerated dose, q4d × 3 ip", "text": "(§1) Combination treatment in mice. The P388 lymphoidal tumor was transplanted intraperitoneally (10^6 cells/mouse) into […] mice. The animals were randomized into control and treated groups after tumor implant. […] Therapy was repeated three times at four day intervals between each treatment."}, "in vivo": {"assay": "in vivo", "settings": "mouse, in vivo, ip", "text": "as §1"}, "dihydrofolate reductase": {"test_system": "dihydrofolate reductase", "settings": "cited from earlier work"}, "smallcell lung cancer": {"test_system": "smallcell lung cancer", "settings": "single agent; cited from earlier work"}, "a number of tumors": {"test_system": "a number of tumors", "settings": "preclinical tests; cited from earlier work"}, "[3]": {"test_system": "metastatic colorectal carcinoma", "settings": "single agent; cited from earlier work"}, "microtubules": {"test_system": "microtubules", "settings": "cited from earlier work"}, "[4]": {"test_system": "refractory ovarian cancer", "settings": "in vivo; cited from earlier work"}}, "note": "“Also recorded” adds a separate entry of the source. Where two headings read alike, the source gives them in different places.", "data": [{"smiles": "CCC(Cc1cnc2nc(N)nc(N)c2n1)c1ccc(C(=O)N[C@@H](CCC(=O)O)C(=O)O)cc1", "note": "(some centres unmarked) [EDX, 10-ethyl-10-deaza-aminopterin]", "values": [{"measurement": "antitumor activity", "setting": "non-Hodgkin's lymphoma", "value": "Antitumor activity of edatrexate has also been observed"}, {"measurement": "accumulation / retention in tumor cells compared with methotrexate", "setting": "sensitive tumor cells", "value": "accumulated in sensitive tumor cells to a greater extent than its predecessor methotrexate and was more selectively retained by the tumor cells"}, {"measurement": "curative effect of the single agent", "setting": "breast cancer", "value": "neither edatrexate nor paclitaxel alone is curative for most metastatic breast cancer patients"}, {"measurement": "antitumor activity", "setting": "breast cancer", "value": "Antitumor activity of edatrexate has also been observed"}, {"measurement": "response rates", "setting": "[1]", "value": "~30", "unit": "%"}, {"measurement": "antitumor activity", "setting": "head and neck carcinoma", "value": "Antitumor activity of edatrexate has also been observed"}, {"measurement": "dosage limit due to side effects", "setting": "[2]; given occasionally", "value": "up to 120 mg/m^2 /week"}, {"measurement": "primary toxic effect", "setting": "[2]; single agent", "value": "mucositis"}, {"measurement": "dosage limit due to side effects", "setting": "[2]; usual", "value": "80 mg/m^2 body surface area/week"}, {"measurement": "Therapeutic activity (in words)", "setting": "P388 Murine Tumor; P388 in mice, maximum tolerated dose", "value": "more effective than MTX"}, {"measurement": "Increased Life-Span", "setting": "P388 Murine Tumor", "value": "+338%"}, {"measurement": "Long-term Survivors", "setting": "P388 Murine Tumor", "value": "1/5"}, {"measurement": "Median Survival Time (± SEM)", "setting": "P388 Murine Tumor", "value": "35 ± 4", "unit": "days"}, {"measurement": "MTD", "setting": "in vivo", "value": 100, "unit": "mg/kg"}, {"measurement": "inhibition of dihydrofolate reductase", "setting": "dihydrofolate reductase; listed as Edatrexate", "value": "inhibits dihydrofolate reductase"}, {"measurement": "inhibition of dihydrofolate reductase", "setting": "dihydrofolate reductase; listed as edatrexate", "value": "inhibitor of dihydrofolate reductase"}, {"measurement": "anti-tumor activity", "setting": "smallcell lung cancer", "value": "No anti-tumor activity was observed"}, {"measurement": "antitumor activity compared with methotrexate", "setting": "a number of tumors", "value": "greater antitumor activity than methotrexate against a number of tumors"}, {"measurement": "anti-tumor activity", "setting": "[3]", "value": "No anti-tumor activity was observed"}]}, {"smiles": "CN(Cc1cnc2nc(N)nc(N)c2n1)c1ccc(C(=O)N[C@@H](CCC(=O)O)C(=O)O)cc1", "note": "[MTX, methotrexate]", "values": [{"measurement": "Long-term Survivors", "setting": "P388 Murine Tumor", "value": "0/5"}, {"measurement": "Median Survival Time (± SEM)", "setting": "P388 Murine Tumor", "value": "27 ± 3", "unit": "days"}, {"measurement": "MTD", "setting": "in vivo", "value": 55, "unit": "mg/kg"}, {"measurement": "inhibition of dihydrofolate reductase", "setting": "dihydrofolate reductase", "value": "inhibitor of dihydrofolate reductase; also recorded: inhibits dihydrofolate reductase"}]}, {"smiles": "CC(=O)O[C@H]1C(=O)[C@@]2(C)[C@H]([C@H](OC(=O)c3ccccc3)[C@]3(O)C[C@H](OC(=O)[C@H](O)[C@@H](NC(=O)c4ccccc4)c4ccccc4)C(C)=C1C3(C)C)[C@]1(OC(C)=O)CO[C@@H]1C[C@@H]2O", "note": "[TXL, paclitaxel]", "values": [{"measurement": "effect on microtubule assembly and stability", "setting": "microtubules", "value": "promotes the assembly of microtubules from tubulin dimers and stabilizes microtubules by preventing depolymerization"}, {"measurement": "activity", "setting": "[4]", "value": "activity against refractory ovarian cancer"}, {"measurement": "curative effect of the single agent", "setting": "breast cancer", "value": "neither edatrexate nor paclitaxel alone is curative for most metastatic breast cancer patients"}, {"measurement": "antitumor activity", "setting": "breast cancer", "value": "anti-tumor properties in some breast cancer patients"}, {"measurement": "primary dose limiting toxic effect", "setting": "[2]; single agent", "value": "myelosuppression"}, {"measurement": "Increased Life-Span", "setting": "P388 Murine Tumor", "value": "+100%"}, {"measurement": "Long-term Survivors", "setting": "P388 Murine Tumor", "value": "0/5"}, {"measurement": "Median Survival Time (± SEM)", "setting": "P388 Murine Tumor", "value": "16 ± 2", "unit": "days"}, {"measurement": "MTD", "setting": "in vivo", "value": 18, "unit": "mg/kg"}]}]}
